Where two headings read alike, the source gives them in different places.
Tests used:
SARS-CoV-2 USA-WA1/2020 [1] = test: microbe, parasite or virus in culture; format: cell-based; details: Severe acute respiratory syndrome coronavirus 2, Vero C1008, 48 h, Vero E6 cells, MOI 0.025, two days; read-out: SARS-CoV-2 EC50
ATTL RNA = test: ligand-based 1H NMR (1D, CPMG, wLOGSY); format: binding, SARS-CoV-2
SARS-CoV-2 USA-WA1/2020 [2] = test: microbe, parasite or virus in culture; format: cell-based; details: Severe acute respiratory syndrome coronavirus 2, 48 h; 293T-ACE2 cells, MOI 0.25, two days; read-out: SARS-CoV-2 EC50
5_SL2+3 RNA = test: ligand-based 1H NMR (1D, CPMG, wLOGSY); format: binding, SARS-CoV-2
SCoV2 RNA elements = test: ligand-based 1H NMR (1D, CPMG, wLOGSY), six RNA elements compared; format: binding, SARS-CoV-2; details: CSP, LB, CPMG and wLOGSY perturbations; 300 µM compound
Source text: We first used ligand-based ^1H NMR experiments to analyze the interaction of the selected compounds with each of the six RNA elements specified above, including one-dimensional, Carr–Purcell–Meiboom–Gill (CPMG) and waterLOGSY (wLOGSY) experiments. These assays detect changes in the ^1H signals of the ligand upon RNA association (Figure 4A), and have been successfully used to evaluate small-molecule binding to RNA motifs, including elements of the SCoV2 genome.
Each ligand (at a concentration of 300 μM) was mixed with a smaller quantity of RNA in an aqueous solution containing 25 mM potassium phosphate (pH 6.2), 150 mM KCl, 3 mM MgCl2, and 10% D2O. RNA–ligand molar ratios of 1:50 and 1:100 were explored (with 6 and 3 μM RNA, respectively). […] The water signal was suppressed from one-dimensional experiments with a watergate sequence. The CPMG experiments were acquired with 100, 200, 300, and 400 ms relaxation delays before acquisition, and water suppression was achieved by presaturation. wLOGSY experiments employed a selective Gaussian 180° pulse at the water frequency and an NOE mixing time of 1.5 s and suppressed the water signal by excitation sculpting. All spectra were acquired in the absence and presence of RNA.
All ligand signals were individually analyzed. For clomiphene citrate, the signals corresponding to cis and trans forms were identified by comparing the spectrum of clomiphene citrate with those of the individual stereoisomers. In CPMG experiments, the binding of the compounds to the different RNA sequences was quantified as 100 minus the percentage of ligand signal area in the +RNA CPMG spectrum relative to the corresponding signal area in the -RNA CPMG spectrum. In wLOGSY experiments, binding was quantified with the LOGSY factor, or % of ligand signal in the difference spectrum between the +RNA and –RNA wLOGSY spectra, relative to the corresponding signal in the one-dimensional -RNA reference spectrum. In one-dimensional experiments, line broadening (LB) was quantified as explained for CPMG spectra.

PRF RNA = test: ligand-based 1H NMR (1D, CPMG, wLOGSY); format: binding, SARS-CoV-2
in vitro = details: human, uninfected 293T-ACE2 cells
3_SL1+2 RNA = format: binding
[3] = average of aliphatic protons, RNA:ligand 1:100 (clomiphene) or 1:50 (trim, qz2)
[4] = average of aromatic protons, RNA:ligand 1:100 (clomiphene) or 1:50 (trim, qz2)

## NCCCc1cn(C(c2ccccc2)(c2ccccc2)c2ccccc2)cn1 [trim]
SARS-CoV-2 USA-WA1/2020 [1]
  EC50: 3.5 µM
ATTL RNA; [3]
  CPMG variation: 11.7%
  LB: 10.0%
  LOGSY factor: 5.15%
ATTL RNA; [4]
  CPMG variation: -12.7%
  LB: 9.31%
  LOGSY factor: 4.35%
ATTL RNA; trim peak A, RNA:ligand 1:50
  CPMG variation: 8.20%
  LB: 12.4%
  LOGSY factor: 7.80%
ATTL RNA; trim peak B, RNA:ligand 1:50
  CPMG variation: 17.6%
  LB: 8.81%
  LOGSY factor: 2.50%
ATTL RNA; trim peak C, RNA:ligand 1:50
  CPMG variation: -36.9%
  LB: 1.54%
  LOGSY factor: 4.56%
ATTL RNA; trim peak D, RNA:ligand 1:50
  CPMG variation: 8.68%
  LB: 7.54%
  LOGSY factor: 4.51%
ATTL RNA; trim peak E, RNA:ligand 1:50
  CPMG variation: -32.0%
  LB: 23.3%
  LOGSY factor: 3.98%
SARS-CoV-2 USA-WA1/2020 [2]
  EC50: 0.33 µM
5_SL2+3 RNA; [3]
  CPMG variation: 31.0%
  LB: 19.1%
  LOGSY factor: 49.4%
5_SL2+3 RNA; [4]
  CPMG variation: 39.0%
  LB: 15.9%
  LOGSY factor: 131.1%
5_SL2+3 RNA; trim peak A, RNA:ligand 1:50
  CPMG variation: 32.9%
  LB: 15.7%
  LOGSY factor: 55.3%
5_SL2+3 RNA; trim peak B, RNA:ligand 1:50
  CPMG variation: 36.9%
  LB: 20.8%
  LOGSY factor: 43.4%
5_SL2+3 RNA; trim peak C, RNA:ligand 1:50
  CPMG variation: 40.3%
  LB: 14.9%
  LOGSY factor: 131%
5_SL2+3 RNA; trim peak D, RNA:ligand 1:50
  CPMG variation: 38.6%
  LB: 16.0%
  LOGSY factor: 126%
5_SL2+3 RNA; trim peak E, RNA:ligand 1:50
  CPMG variation: 38.9%
  LB: 16.7%
  LOGSY factor: 135%
SCoV2 RNA elements
  RNA binding preference: bound with enhanced affinity to the 5_SL2+3 and 3_S2m molecules
PRF RNA; [3]
  CPMG variation: 14.0%
  LB: 13.9%
  LOGSY factor: 29.0%
PRF RNA; [4]
  CPMG variation: 15.5%
  LB: -22.5%
  LOGSY factor: 50.5%
PRF RNA; trim peak A, RNA:ligand 1:50
  CPMG variation: 13.0%
  LB: 20.1%
  LOGSY factor: 37.0%
PRF RNA; trim peak B, RNA:ligand 1:50
  CPMG variation: 18.9%
  LB: 10.8%
  LOGSY factor: 21.0%
PRF RNA; trim peak C, RNA:ligand 1:50
  CPMG variation: 9.72%
  LB: -39.2%
  LOGSY factor: 16.7%
PRF RNA; trim peak D, RNA:ligand 1:50
  CPMG variation: 19.7%
  LB: 3.93%
  LOGSY factor: 46.0%
PRF RNA; trim peak E, RNA:ligand 1:50
  CPMG variation: 12.5%
  LB: -58.9%
  LOGSY factor: 88.8%
In vitro
  CC50 at 2 days: 23.5 µM
3_SL1+2 RNA; [3]
  CPMG variation: 18.3%
  LB: 14.0%
  LOGSY factor: 33.1%
3_SL1+2 RNA; [4]
  CPMG variation: 25.0%
  LB: 10.2%
  LOGSY factor: 87.9%
3_SL1+2 RNA; trim peak A, RNA:ligand 1:50
  CPMG variation: 18.5%
  LB: 11.8%
  LOGSY factor: 32.1%
3_SL1+2 RNA; trim peak B, RNA:ligand 1:50
  CPMG variation: 23.8%
  LB: 15.1%
  LOGSY factor: 34.2%
3_SL1+2 RNA; trim peak C, RNA:ligand 1:50
  CPMG variation: 23.6%
  LB: 7.46%
  LOGSY factor: 80.8%
3_SL1+2 RNA; trim peak D, RNA:ligand 1:50
  CPMG variation: 25.2%
  LB: 9.70%
  LOGSY factor: 92.6%
3_SL1+2 RNA; trim peak E, RNA:ligand 1:50
  CPMG variation: 26.4%
  LB: 14.1%
  LOGSY factor: 90.5%
